According to the supplement of paper PMC10307832:

Columns and labels:
Assay in all cases: relative viability (nuclei count vs DMSO), 5 days (fraction); higher = more cells survive
201T = tested on: 201T
How it was run: (§1)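 A single step with final 0.05% Triton X-100, 1% formaldehyde and 1 ug/ml Hoechst fixed the cells and stained nuclei 5 days after treatment. Lung cancer cell lines in 1536-well plates had been treated by pin tool the day after seeding with one drug alone or a fixed anchor-drug dose plus five library-drug doses (not always all listed) in √10 steps, and nuclei were counted on 4× images. Relative viability is the ratio of nuclei in treated wells to nuclei in vehicle wells, taken as the median of duplicate plates.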

COR-L 105 = tested on: COR-L 105
How it was run: as §1

ChaGo-K-1 = tested on: ChaGo-K-1
How it was run: as §1

EKVX = tested on: EKVX
How it was run: as §1

H3255 = tested on: H3255
How it was run: as §1

HARA = tested on: HARA
How it was run: as §1

HCC-827 = tested on: HCC-827
How it was run: as §1

HOP-62 = tested on: HOP-62
How it was run: as §1

LCLC-103H = tested on: LCLC-103H
How it was run: as §1

LOU-NH91 = tested on: LOU-NH91
How it was run: as §1

NCI-H1975 = tested on: NCI-H1975
How it was run: as §1

NCI-H2126 = tested on: NCI-H2126
How it was run: as §1

NCI-H2228 = tested on: NCI-H2228
How it was run: as §1

NCI-H23 = tested on: NCI-H23
How it was run: as §1

NCI-H2405 = tested on: NCI-H2405
How it was run: as §1

NCI-H3122 = tested on: NCI-H3122
How it was run: as §1

NCI-H596 = tested on: NCI-H596
How it was run: as §1

NCI-H650 = tested on: NCI-H650
How it was run: as §1

NCI-H661 = tested on: NCI-H661
How it was run: as §1

NCI-H727 = tested on: NCI-H727
How it was run: as §1

PC-3 [JPC-3] = tested on: PC-3 [JPC-3]
How it was run: as §1

SK-LU-1 = tested on: SK-LU-1
How it was run: as §1

SW 900 = tested on: SW 900
How it was run: as §1

## Cc1cn(-c2cc(NC(=O)c3ccc(C)c(Nc4nccc(-c5cccnc5)n4)c3)cc(C(F)(F)F)c2)cn1 [Nilotinib] + O=C(CCCCCCC(=O)Nc1ccccc1)NO [Vorinostat] (partner 1 µM)
201T; first compound 0.001 µM
  relative viability: 0.931
201T; first compound 0.003162 µM
  relative viability: 1.19
201T; first compound 0.01 µM
  relative viability: 1.22
201T; first compound 0.1 µM
  relative viability: 0.28
COR-L 105; first compound 0.001 µM
  relative viability: 0.744
COR-L 105; first compound 0.003162 µM
  relative viability: 1.09
COR-L 105; first compound 0.01 µM
  relative viability: 0.81
COR-L 105; first compound 0.03162 µM
  relative viability: 0.76
COR-L 105; first compound 0.1 µM
  relative viability: 0.672
ChaGo-K-1; first compound 0.001 µM
  relative viability: 0.654
ChaGo-K-1; first compound 0.003162 µM
  relative viability: 0.979
ChaGo-K-1; first compound 0.01 µM
  relative viability: 0.804
ChaGo-K-1; first compound 0.03162 µM
  relative viability: 0.733
ChaGo-K-1; first compound 0.1 µM
  relative viability: 0.4
EKVX; first compound 0.001 µM
  relative viability: 0.65
EKVX; first compound 0.003162 µM
  relative viability: 0.879
EKVX; first compound 0.01 µM
  relative viability: 0.704
EKVX; first compound 0.03162 µM
  relative viability: 0.55
EKVX; first compound 0.1 µM
  relative viability: 0.718
H3255; first compound 0.001 µM
  relative viability: 0.743
H3255; first compound 0.003162 µM
  relative viability: 0.706
H3255; first compound 0.03162 µM
  relative viability: 0.764
H3255; first compound 0.1 µM
  relative viability: 0.429
HARA; first compound 0.001 µM
  relative viability: 0.544
HARA; first compound 0.003162 µM
  relative viability: 0.668
HARA; first compound 0.01 µM
  relative viability: 0.507
HARA; first compound 0.03162 µM
  relative viability: 0.401
HARA; first compound 0.1 µM
  relative viability: 0.423
HCC-827; first compound 0.001 µM
  relative viability: 0.835
HCC-827; first compound 0.003162 µM
  relative viability: 0.983
HCC-827; first compound 0.03162 µM
  relative viability: 0.857
HCC-827; first compound 0.1 µM
  relative viability: 0.822
HOP-62; first compound 0.001 µM
  relative viability: 0.625
HOP-62; first compound 0.003162 µM
  relative viability: 0.567
HOP-62; first compound 0.01 µM
  relative viability: 0.631
HOP-62; first compound 0.03162 µM
  relative viability: 0.479
LCLC-103H; first compound 0.001 µM
  relative viability: 0.74
LCLC-103H; first compound 0.003162 µM
  relative viability: 0.823
LCLC-103H; first compound 0.01 µM
  relative viability: 0.858
LCLC-103H; first compound 0.03162 µM
  relative viability: 0.691
LCLC-103H; first compound 0.1 µM
  relative viability: 0.433
LOU-NH91; first compound 0.001 µM
  relative viability: 1.03
LOU-NH91; first compound 0.003162 µM
  relative viability: 0.936
LOU-NH91; first compound 0.01 µM
  relative viability: 0.946
LOU-NH91; first compound 0.03162 µM
  relative viability: 0.898
LOU-NH91; first compound 0.1 µM
  relative viability: 0.882
NCI-H1975; first compound 0.001 µM
  relative viability: 0.598
NCI-H1975; first compound 0.003162 µM
  relative viability: 0.742
NCI-H1975; first compound 0.01 µM
  relative viability: 0.702
NCI-H1975; first compound 0.03162 µM
  relative viability: 0.489
NCI-H1975; first compound 0.1 µM
  relative viability: 0.643
NCI-H2126; first compound 0.001 µM
  relative viability: 0.754
NCI-H2126; first compound 0.003162 µM
  relative viability: 0.888
NCI-H2126; first compound 0.01 µM
  relative viability: 0.864
NCI-H2126; first compound 0.03162 µM
  relative viability: 0.764
NCI-H2126; first compound 0.1 µM
  relative viability: 0.476
NCI-H2228; first compound 0.001 µM
  relative viability: 0.659
NCI-H2228; first compound 0.003162 µM
  relative viability: 0.616
NCI-H2228; first compound 0.01 µM
  relative viability: 0.594
NCI-H2228; first compound 0.03162 µM
  relative viability: 0.501
NCI-H2228; first compound 0.1 µM
  relative viability: 0.588
NCI-H23; first compound 0.001 µM
  relative viability: 0.48
NCI-H23; first compound 0.003162 µM
  relative viability: 0.438
NCI-H23; first compound 0.01 µM
  relative viability: 0.685
NCI-H23; first compound 0.03162 µM
  relative viability: 0.239
NCI-H23; first compound 0.1 µM
  relative viability: 0.546
NCI-H2405; first compound 0.001 µM
  relative viability: 0.946
NCI-H2405; first compound 0.003162 µM
  relative viability: 0.927
NCI-H2405; first compound 0.03162 µM
  relative viability: 0.763
NCI-H2405; first compound 0.1 µM
  relative viability: 0.521
NCI-H3122; first compound 0.001 µM
  relative viability: 0.85
NCI-H3122; first compound 0.003162 µM
  relative viability: 1.47
NCI-H3122; first compound 0.01 µM
  relative viability: 1.07
NCI-H3122; first compound 0.03162 µM
  relative viability: 0.89
NCI-H3122; first compound 0.1 µM
  relative viability: 0.851
NCI-H596; first compound 0.001 µM
  relative viability: 0.518
NCI-H596; first compound 0.003162 µM
  relative viability: 0.455
NCI-H596; first compound 0.01 µM
  relative viability: 0.651
NCI-H596; first compound 0.03162 µM
  relative viability: 0.532
NCI-H596; first compound 0.1 µM
  relative viability: 0.498
NCI-H650; first compound 0.001 µM
  relative viability: 0.392
NCI-H650; first compound 0.003162 µM
  relative viability: 0.437
NCI-H650; first compound 0.01 µM
  relative viability: 0.445
NCI-H650; first compound 0.03162 µM
  relative viability: 0.407
NCI-H650; first compound 0.1 µM
  relative viability: 0.377
NCI-H661; first compound 0.001 µM
  relative viability: 0.792
NCI-H661; first compound 0.003162 µM
  relative viability: 0.889
NCI-H661; first compound 0.01 µM
  relative viability: 0.875
NCI-H661; first compound 0.03162 µM
  relative viability: 0.642
NCI-H661; first compound 0.1 µM
  relative viability: 0.615
NCI-H727; first compound 0.001 µM
  relative viability: 1.12
NCI-H727; first compound 0.003162 µM
  relative viability: 1.35
NCI-H727; first compound 0.01 µM
  relative viability: 1.16
NCI-H727; first compound 0.03162 µM
  relative viability: 1.15
NCI-H727; first compound 0.1 µM
  relative viability: 1.05
PC-3 [JPC-3]; first compound 0.001 µM
  relative viability: 0.792
PC-3 [JPC-3]; first compound 0.01 µM
  relative viability: 0.668
PC-3 [JPC-3]; first compound 0.03162 µM
  relative viability: 0.691
PC-3 [JPC-3]; first compound 0.1 µM
  relative viability: 0.53
SK-LU-1; first compound 0.001 µM
  relative viability: 0.628
SK-LU-1; first compound 0.003162 µM
  relative viability: 0.756
SK-LU-1; first compound 0.01 µM
  relative viability: 0.865
SK-LU-1; first compound 0.03162 µM
  relative viability: 0.632
SK-LU-1; first compound 0.1 µM
  relative viability: 0.692
SW 900; first compound 0.003162 µM
  relative viability: 0.456
SW 900; first compound 0.01 µM
  relative viability: 0.624
SW 900; first compound 0.03162 µM
  relative viability: 0.216
SW 900; first compound 0.1 µM
  relative viability: 0.368
